Values of other authors, collected in patent publication US6681132B1, “Sodium magnetic reasonance imaging used in diagnosing tumors and assessing response to treatment” (The Trustees of Columbia University in the City of New York, priority 1999, dated 2004).

Test system: L cells
Settings: K+ loss exceeds Na+ gain; cited from earlier work

O=C(O)c1nn(Cc2ccc(Cl)cc2Cl)c2ccccc12 [lonidamine]
effect on total cellular monovalent cations: net reduction
